Patent publication US10273226B2, “Pyrazolyl-heteroarylamides as pesticides” (Bayer Animal Health GmbH, priority 2014, dated 2019)

system: Lucilia cuprina; test: Lucilia cuprina test; format: in vivo; conditions: application rate 100 ppm; L1 larvae; after 2 days
Protocol: (§1) Solvent: dimethyl sulphoxide
To produce an appropriate active ingredient formulation, 10 mg of active ingredient are mixed with 0.5 ml of dimethyl sulphoxide, and the concentrate is diluted with water to the desired concentration.
About 20 L1 larvae of the Australian sheep blowfly (Lucilia cuprina) are transferred into a test vessel containing minced horsemeat and the active ingredient preparation of the desired concentration.
After 2 days, the kill in % is determined. 100% means that all the larvae have been killed and 0% means that none of the larvae have been killed.

SMILES	efficacy (kill in %) [%]
Cc1ccc(C(=O)Nc2cc(-c3cnn(-c4c(C(F)(F)F)c(C(F)(F)C(F)(F)F)nn4C)c3)ccc2F)cc1F [Example 1-092]	100
Cc1cc(C(=O)Nc2cc(-c3cnn(-c4c(C(F)(F)F)c(C(F)(F)C(F)(F)F)nn4C)c3)ccc2F)cc(Cl)n1 [Example 1-043]	100

system: Ctenocephalides felis; test: Ctenocephalides felis in vitro contact test with adult cat fleas; format: in vivo; conditions: application rate 5 μg/cm^2 (500 g/ha); after 48 h; fleas dead or moribund
Protocol: Ctenocephalides felis—In Vitro Contact Tests with Adult Cat Fleas
(§2) For the coating of the test tubes, 9 mg of active ingredient are first dissolved in 1 ml of acetone p.a. and then diluted to the desired concentration with acetone p.a. 250 μl of the solution are distributed homogeneously on the inner walls and base of a 25 ml test tube by turning and rocking on an orbital shaker (rocking rotation at 30 rpm for 2 h). With 900 ppm active ingredient solution and internal surface 44.7 cm^2, given homogeneous distribution, an area-based dose of 5 μg/cm^2 is achieved.
After the solvent has evaporated off, the tubes are populated with 5-10 adult cat fleas (Ctenocephalides felis), sealed with a perforated plastic lid and incubated in a horizontal position at room temperature and ambient humidity. After 48 h, efficacy is determined. To this end, the test tubes are stood upright and the fleas are knocked to the base of the tube. Fleas which remain motionless at the base or move in an uncoordinated manner are considered to be dead or moribund.
100% efficacy means that all the fleas were dead or moribund. 0% efficacy means that no fleas were harmed.

SMILES	efficacy [%]
Cn1nc(C(F)(F)C(F)(F)F)c(C(F)(F)F)c1-n1cc(-c2ccc(F)c(NC(=O)c3ccc(F)cc3)c2F)cn1 [Example 1-039]	80
Cc1ccc2c(Cl)c(C(=O)Nc3cc(-c4cnn(-c5c(C(F)(F)F)c(C(F)(F)C(F)(F)F)nn5C)c4)ccc3F)sc2c1 [Example 1-083]	80

system: Boophilus microplus; test: Boophilus microplus injection test; format: in vivo; conditions: application rate 20 μg/animal; injection into abdomen; assessed after 7 days
Protocol: Boophilus microplus—Injection Test
as §1
To produce an appropriate active ingredient formulation, 10 mg of active ingredient are mixed with 0.5 ml of solvent and the concentrate is diluted with solvent to the desired concentration.
1 μl of the active ingredient solution is injected into the abdomen of 5 engorged adult female cattle ticks (Boophilus microplus). The animals are transferred into dishes and kept in a climate-controlled room.
Efficacy is assessed after 7 days by laying of fertile eggs. Eggs which are not visibly fertile are stored in a climate-controlled cabinet until the larvae hatch after about 42 days. An efficacy of 100% means that none of the ticks has laid any fertile eggs; 0% means that all the eggs are fertile.

SMILES	efficacy (laying of fertile eggs) [%]
Cn1nc(C(F)(F)C(F)(F)F)c(C(F)(F)F)c1-n1cc(-c2cccc(NC(=O)c3sccc3Cl)c2)cn1 [Example 1-018]	100
Cc1ccc2c(Cl)c(C(=O)Nc3cc(-c4cnn(-c5c(C(F)(F)F)c(C(F)(F)C(F)(F)F)nn5C)c4)ccc3F)sc2c1 [Example 1-083]	80
Cc1ccc(C(=O)Nc2cc(-c3cnn(-c4c(C(F)(F)F)c(C(F)(F)C(F)(F)F)nn4C)c3)ccc2F)cc1F [Example 1-092]	100
Cc1cc(C(=O)Nc2cc(-c3cnn(-c4c(C(F)(F)F)c(C(F)(F)C(F)(F)F)nn4C)c3)ccc2F)cc(Cl)n1 [Example 1-043]	100

system: Rhipicephalus sanguineus; test: Rhipicephalus sanguineus in vitro contact test with adult brown dog ticks; format: in vivo; conditions: application rate 1 μg/cm^2 (100 g/ha); after 48 h; ticks dead or moribund
Protocol: Rhipicephalus sanguineus—In Vitro Contact Tests with Adult Brown Dog Ticks
as §2
After the solvent has evaporated off, the tubes are populated with 5-10 adult dog ticks (Rhipicephalus sanguineus), sealed with a perforated plastic lid and incubated in a horizontal position in the dark at room temperature and ambient humidity. After 48 h, efficacy is determined. To this end, the ticks are knocked to the floor of the tube and incubated on a hotplate at 45-50° C. for not more than 5 min. Ticks which remain motionless on the floor or move in such an uncoordinated manner that they are unable to deliberately avoid the heat by climbing upwards are considered to be dead or moribund.
An efficacy of 100% means that all the ticks were dead or moribund. 0% efficacy means that none of the ticks had been harmed.

SMILES	efficacy [%]
Cc1cc(C(=O)Nc2cc(-c3cnn(-c4c(C(F)(F)F)c(C(F)(F)C(F)(F)F)nn4C)c3)ccc2F)cc(Cl)n1 [Example 1-043]	80

same assay, conditions: application rate 5 μg/cm^2 (500 g/ha); after 48 h; ticks dead or moribund

SMILES	efficacy [%]
Cc1ccc(C(=O)Nc2cc(-c3cnn(-c4c(C(F)(F)F)c(C(F)(F)C(F)(F)F)nn4C)c3)ccc2F)cc1F [Example 1-092]	100

system: Ctenocephalides felis; test: Ctenocephalides felis oral test; format: in vivo; conditions: application rate 100 ppm in citrated cattle blood; after 2 days
Protocol: Ctenocephalides felis—Oral Test
as §1
For the purpose of producing an appropriate active ingredient formulation, 10 mg of active ingredient are mixed with 0.5 ml of dimethyl sulphoxide. Dilution with citrated cattle blood gives the desired concentration.
About 20 unfed adult cat fleas (Ctenocephalides felis) are placed into a chamber which is closed at the top and bottom with gauze. A metal cylinder whose bottom end is closed with parafilm is placed onto the chamber. The cylinder contains the blood/active ingredient preparation, which can be imbibed by the fleas through the parafilm membrane.
After 2 days, the kill in % is determined. 100% means that all of the fleas have been killed; 0% means that none of the fleas have been killed.

SMILES	efficacy (kill in %) [%]
Cc1ccc(C(=O)Nc2cc(-c3cnn(-c4c(C(F)(F)F)c(C(F)(F)C(F)(F)F)nn4C)c3)ccc2F)cc1F [Example 1-092]	100
Cc1cc(C(=O)Nc2cc(-c3cnn(-c4c(C(F)(F)F)c(C(F)(F)C(F)(F)F)nn4C)c3)ccc2F)cc(Cl)n1 [Example 1-043]	100

system: Spodoptera frugiperda; test: Spodoptera frugiperda spray test; format: in vivo; conditions: application rate 100 g/ha; caterpillars; after 7 days
Protocol: Spodoptera frugiperda—Spray Test
(§3) To produce an appropriate active ingredient formulation, 1 part by weight of active ingredient is dissolved using the specified parts by weight of solvent and made up with water containing an emulsifier concentration of 1000 ppm until the desired concentration is attained. To produce further test concentrations, the preparation is diluted with emulsifier-containing water.
Leaf discs of maize (Zea mays) are sprayed with an active ingredient formulation of the desired concentration and, after drying, populated with caterpillars of the armyworm (Spodoptera frugiperda).
After 7 days, efficacy in % is determined. 100% means that all the caterpillars have been killed; 0% means that no caterpillars have been killed.

SMILES	efficacy [%]
Cn1nc(C(F)(F)C(F)(F)F)c(C(F)(F)F)c1-n1cc(-c2ccc(F)c(NC(=O)c3ccc(F)cc3)c2F)cn1 [Example 1-039]	100
Cc1ccc(C(=O)Nc2cc(-c3cnn(-c4c(C(F)(F)F)c(C(F)(F)C(F)(F)F)nn4C)c3)ccc2F)cc1F [Example 1-092]	100
Cc1cc(C(=O)Nc2cc(-c3cnn(-c4c(C(F)(F)F)c(C(F)(F)C(F)(F)F)nn4C)c3)ccc2F)cc(Cl)n1 [Example 1-043]	100

same assay, conditions: application rate 500 g/ha; caterpillars; after 7 days

SMILES	efficacy [%]
Cn1nc(C(F)(F)C(F)(F)F)c(C(F)(F)F)c1-n1cc(-c2cccc(NC(=O)c3sccc3Cl)c2)cn1 [Example 1-018]	100

system: Tetranychus urticae; test: Tetranychus urticae spray test, OP-resistant; format: in vivo; conditions: application rate 100 g/ha; after 6 days
Protocol: Tetranychus urticae—Spray Test, OP-Resistant
as §3
Discs of bean leaves (Phaseolus vulgaris) infested by all stages of the greenhouse red spider mite (Tetranychus urticae) are sprayed with an active ingredient formulation of the desired concentration.
After 6 days, efficacy in % is determined. 100% means that all the spider mites have been killed; 0% means that none of the spider mites have been killed.

SMILES	efficacy [%]
Cn1nc(C(F)(F)C(F)(F)F)c(C(F)(F)F)c1-n1cc(-c2cccc(NC(=O)c3sccc3Cl)c2)cn1 [Example 1-018]	90
Cn1nc(C(F)(F)C(F)(F)F)c(C(F)(F)F)c1-n1cc(-c2ccc(F)c(NC(=O)c3ccc(F)cc3)c2F)cn1 [Example 1-039]	100
Cc1ccc(C(=O)Nc2cc(-c3cnn(-c4c(C(F)(F)F)c(C(F)(F)C(F)(F)F)nn4C)c3)ccc2F)cc1F [Example 1-092]	100
Cc1cc(C(=O)Nc2cc(-c3cnn(-c4c(C(F)(F)F)c(C(F)(F)C(F)(F)F)nn4C)c3)ccc2F)cc(Cl)n1 [Example 1-043]	100

system: Phaedon cochleariae; test: Phaedon cochleariae spray test; format: in vivo; conditions: application rate 100 g/ha; larvae; after 7 days
Protocol: Phaedon cochleariae—Spray Test
as §3
Discs of Chinese cabbage leaves (Brassica pekinensis) are sprayed with an active ingredient formulation of the desired concentration and, after drying, populated with larvae of the mustard beetle (Phaedon cochleariae).
After 7 days, efficacy in % is determined. 100% means that all the beetle larvae have been killed; 0% means that no beetle larvae have been killed.

SMILES	efficacy [%]
Cn1nc(C(F)(F)C(F)(F)F)c(C(F)(F)F)c1-n1cc(-c2ccc(F)c(NC(=O)c3ccc(F)cc3)c2F)cn1 [Example 1-039]	100
Cc1ccc(C(=O)Nc2cc(-c3cnn(-c4c(C(F)(F)F)c(C(F)(F)C(F)(F)F)nn4C)c3)ccc2F)cc1F [Example 1-092]	100
Cc1cc(C(=O)Nc2cc(-c3cnn(-c4c(C(F)(F)F)c(C(F)(F)C(F)(F)F)nn4C)c3)ccc2F)cc(Cl)n1 [Example 1-043]	100

same assay, conditions: application rate 500 g/ha; larvae; after 7 days

SMILES	efficacy [%]
Cn1nc(C(F)(F)C(F)(F)F)c(C(F)(F)F)c1-n1cc(-c2cccc(NC(=O)c3sccc3Cl)c2)cn1 [Example 1-018]	100
